# What was measured:
# [1] = investigation cohort, 70 patients
# [2] = atorvastatin and its metabolites; cited from earlier work
smiles,measurement,setting,value
CC(C)c1c(C(=O)Nc2ccccc2)c(-c2ccccc2)c(-c2ccc(F)cc2)n1CC[C@@H](O)C[C@@H](O)CC(=O)O [atorvastatin],"σ (SD), residual variability",exponential residual error,0.085
same,"ωQ (SD), between-subject variability",final PopPK model,0.715
same,"ωVc (SD), between-subject variability",final PopPK model,1.18
same,"ωVp (SD), between-subject variability",final PopPK model,0.508
same,patients with myalgia at any time during follow-up,[1],8.6%
same,fraction of the oral dose excreted in urine,[2],less than 1%
